Measurements as given in patent US20050239656A1, “Pyridine compounds or salts thereof and herbicides containing the same” (priority 2002, published 2005).

What was measured:
[1] = test system: velvetleaf; assay: Test Example 1: foliage treatment, upland pot test; format: in vivo, Abutilon theophrasti MEDIC.; settings: observed 18th to 23rd day, 0 = non-treated, 100 = complete kill
Description: (§1) Upland field soil was put into a 1/170,000 ha pot, and seed of various plants were sown. Then, when the plants reached predetermined leaf stages ((1) barnyardgrass: 1.3 to 2.8 leaf stages, (2) crabgrass: 1.0 to 2.8 leaf stages, (3) green foxtail: 1.3 to 2.6 leaf stages, (4) redroot pigweed: 0.1 to 1.2 leaf stages, (5) prickly sida: 0.1 to 1.2 leaf stages, (6) velvetleaf: 0.1 to 1.2 leaf stages, (7) tall morningglory: 0.1 to 1.5 leaf stages, (8) rice: 1.2 to 2.6 leaf stages, (9) wheat: 1.3 to 2.4 leaf stages, (10) corn, 2.1 to 3.2 leaf stages, (11) soybean: 0.1 to 0.4 leaf stage), a wettable powder or emulsifiable concentrate having the compound of the present invention formulated in accordance with a usual formulation method, was weighed so that the active ingredient would be a predetermined amount, and diluted with water in an amount of 500 L/ha. To the diluted solution, 0.1% (v/v) of agricultural spreader was added. The herbicide thus adjusted was applied by a small size sprayer for foliage treatment. On the 18th to 23rd days after the application of the herbicide, the growth of the respective plants was visually observed, and the herbicidal effects were evaluated by the growth controlling degrees (%) ranging from 0 (equivalent to the non-treated plot) to 100 (complete kill), whereby the results shown in Table 3, were obtained.

[2] = test system: soybean; assay: Test Example 1: foliage treatment, upland pot test; format: in vivo, Glycine max Merr.; settings: crop, observed 18th to 23rd day, 0 = non-treated, 100 = complete kill
Description: as §1

[3] = test system: corn; assay: Test Example 1: foliage treatment, upland pot test; format: in vivo, Zea mays L.; settings: crop, observed 18th to 23rd day, 0 = non-treated, 100 = complete kill
Description: as §1

[4] = test system: rice; assay: Test Example 1: foliage treatment, upland pot test; format: in vivo, Oryza sativa L.; settings: crop, observed 18th to 23rd day, 0 = non-treated, 100 = complete kill
Description: as §1

[5] = test system: barnyardgrass; assay: Test Example 1: foliage treatment, upland pot test; format: in vivo, Echinochloa crus-galli L.; settings: observed 18th to 23rd day, 0 = non-treated, 100 = complete kill
Description: as §1

[6] = test system: japanese bulrush; assay: Test Example 3: paddy pot test, application under submerged conditions; format: in vivo, Scirpus juncoides; settings: submerged application at 0.5 leaf stage, visually observed 14 days after application, 0 = non-treated, 100 = complete kill
Outline: (§2)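 Barnyardgrass and japanese bulrush sown in flooded paddy soil in greenhouse pots, japanese ribbon wapato tubers planted 1–2 days later; water depth kept at 3–4 cm. Diluted wettable powder or emulsifiable concentrate applied into water at 0.5-leaf or primary-leaf stage at set active-ingredient doses. Growth control scored visually at 14 days, 0 (untreated) to 100% (complete kill).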

[7] = test system: rice (var. Nihonbare); assay: Test Example 3: paddy pot test, transplanted rice; format: in vivo, Oryza sativa L.; settings: applied 4th day after transplantation, visually observed 21st day after application, 0 = non-treated, 100 = complete kill
Outline: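 Rice (var. Nihonbare) at 2 leaf stage transplanted 3 cm deep into puddled paddy soil under 3–4 cm flooding; on day 4 after transplanting, diluted wettable powder or emulsifiable concentrate applied by pipette under submerged conditions at a set active-ingredient dose. Growth scored visually 21 days after application, 0 (untreated) to 100 (complete kill) %.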

[8] = test system: prickly sida; assay: Test Example 1: foliage treatment, upland pot test; format: in vivo, Sida spinosa L.; settings: observed 18th to 23rd day, 0 = non-treated, 100 = complete kill
Description: as §1

[9] = test system: barnyardgrass; assay: Test Example 3: paddy pot test, application under submerged conditions; format: in vivo, Echinochloa crus-galli L.; settings: submerged application at 0.5 leaf stage, visually observed 14 days after application, 0 = non-treated, 100 = complete kill
Outline: as §2

[10] = test system: redroot pigweed; assay: Test Example 1: foliage treatment, upland pot test; format: in vivo, Amaranthus retroflexus L.; settings: active ingredient 1000 g/ha, observed 18th to 23rd day, 0 = non-treated, 100 = complete kill
Description: as §1

[11] = test system: japanese ribbon wapato; assay: Test Example 3: paddy pot test, application under submerged conditions; format: in vivo, Sagittaria pygniaea; settings: submerged application at primary leaf stage, visually observed 14 days after application, 0 = non-treated, 100 = complete kill
Outline: as §2

[12] = test system: rice; assay: Test Example 2: soil surface treatment, upland pot test; format: in vivo, Oryza sativa L.; settings: observed 20th to 28th day
Outline: (§3)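 Pre-emergence: the soil surface was sprayed 1 day after sowing with wettable powder or emulsifiable concentrate diluted in water at 1,500 L/ha, at a predetermined active ingredient amount. Growth control was scored visually 20–28 days after treatment, 0 (untreated) to 100 (complete kill).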

[13] = test system: prickly sida; assay: as above; format: in vivo, Sida spinosa L.; settings: observed 20th to 28th day
Outline: as §3

[14] = test system: redroot pigweed; assay: as above; format: in vivo, Amaranthus retroflexus L.; settings: observed 20th to 28th day
Outline: as §3

[15] = test system: barnyardgrass; assay: as above; format: in vivo, Echinochloa crus-galli L.; settings: observed 20th to 28th day
Outline: as §3

[16] = test system: soybean; assay: as above; format: in vivo, Glycine max Merr.; settings: observed 20th to 28th day
Outline: as §3

[17] = test system: green foxtail; assay: Test Example 1: foliage treatment, upland pot test; format: in vivo, Setaria viridis L.; settings: observed 18th to 23rd day, 0 = non-treated, 100 = complete kill
Description: as §1

[18] = test system: corn; assay: Test Example 2: soil surface treatment, upland pot test; format: in vivo, Zea mays L.; settings: observed 20th to 28th day
Outline: as §3

[19] = test system: crabgrass; assay: Test Example 1: foliage treatment, upland pot test; format: in vivo, Digitaria sanguinalis L.; settings: active ingredient 500 g/ha, observed 18th to 23rd day, 0 = non-treated, 100 = complete kill
Description: as §1

[20] = test system: green foxtail; assay: Test Example 2: soil surface treatment, upland pot test; format: in vivo, Setaria viridis L.; settings: observed 20th to 28th day
Outline: as §3

[21] = test system: crabgrass; assay: as above; format: in vivo, Digitaria sanguinalis L.; settings: observed 20th to 28th day
Outline: as §3

[22] = test system: velvetleaf; assay: as above; format: in vivo, Abutilon theophrasti MEDIC.; settings: observed 20th to 28th day
Outline: as §3

| SMILES | Growth controlling degree (%) Velvetleaf ([1]; active ingredient 1000 g/ha) [%] | Growth controlling degree (%) Soybean ([2]; active ingredient 1000 g/ha) [%] | Growth controlling degree (%) Corn ([3]; active ingredient 1000 g/ha) [%] | Growth controlling degree (%) Rice ([4]; active ingredient 1000 g/ha) [%] | Growth controlling degree (%) Barnyardgrass ([5]; active ingredient 1000 g/ha) [%] | Growth controlling degree (%) Prickly sida ([8]; active ingredient 1000 g/ha) [%] | Growth controlling degree (%) Redroot pigweed [10] [%] | Growth controlling degree (%) Rice ([12]; active ingredient 500 g/ha) [%] | Growth controlling degree (%) Prickly sida ([13]; active ingredient 500 g/ha) [%] | Growth controlling degree (%) Redroot pigweed ([14]; active ingredient 500 g/ha) [%] | Growth controlling degree (%) Japanese bulrush ([6]; active ingredient 250 g/ha) [%] | Growth controlling degree (%) Barnyardgrass ([15]; active ingredient 500 g/ha) [%] | Growth controlling degree (%) Soyabean ([16]; active ingredient 500 g/ha) [%] | Growth controlling degree (%) Corn ([18]; active ingredient 500 g/ha) [%] | Growth controlling degree (%) Rice ([7]; active ingredient 250 g/ha) [%] | Growth controlling degree (%) Barnyardgrass ([9]; active ingredient 250 g/ha) [%] | Growth controlling degree (%) Green foxtail ([20]; active ingredient 500 g/ha) [%] | Growth controlling degree (%) Crabgrass ([21]; active ingredient 500 g/ha) [%] | Growth controlling degree (%) Velvetleaf ([22]; active ingredient 500 g/ha) [%] | Growth controlling degree (%) Japanese ribbon wapato ([11]; active ingredient 250 g/ha) [%] | other results |
| --- | --- | --- | --- | --- | --- | --- | --- | --- | --- | --- | --- | --- | --- | --- | --- | --- | --- | --- | --- | --- | --- |
| CC(C)C(c1cnccc1Cl)N(C)C(=O)Cc1ccc(F)c(F)c1 (stereo not drawn) [I-73] | 90 | 70 | 0 | 30 | 40 | 85 | 60 | – | – | – | – | – | – | – | – | – | – | – | – | – | Growth controlling degree (%) Japanese bulrush ([6]; active ingredient 125 g/ha): 90%; Growth controlling degree (%) Rice ([7]; active ingredient 125 g/ha): 0%; Growth controlling degree (%) Barnyardgrass ([9]; active ingredient 125 g/ha): 98%; Growth controlling degree (%) Japanese ribbon wapato ([11]; active ingredient 125 g/ha): 20% |
| CC(C)C(c1cnccc1C(F)(F)F)N(C)C(=O)COc1ccc(F)cc1 (stereo not drawn) [I-241] | – | – | – | – | – | – | – | 20 | 100 | 90 | 95 | 100 | 20 | 40 | 0 | 100 | 100 | 98 | 70 | 80 | Growth controlling degree (%) Velvetleaf ([1]; active ingredient 500 g/ha): 80%; Growth controlling degree (%) Soybean ([2]; active ingredient 500 g/ha): 80%; Growth controlling degree (%) Corn ([3]; active ingredient 500 g/ha): 30%; Growth controlling degree (%) Rice ([4]; active ingredient 500 g/ha): 20%; Growth controlling degree (%) Barnyardgrass ([5]; active ingredient 500 g/ha): 70%; Growth controlling degree (%) Green foxtail ([17]; active ingredient 500 g/ha): 70%; Growth controlling degree (%) Prickly sida ([8]; active ingredient 500 g/ha): 80%; Growth controlling degree (%) Crabgrass [19]: 95% |
| CC(C)C(c1cnccc1Cl)N(C)C(=O)Cc1cccc(C(F)(F)F)c1F (stereo not drawn) [I-74] | 90 | 30 | 30 | 20 | 50 | 80 | 60 | – | – | – | – | – | – | – | – | – | – | – | – | – | – |
| CCN(C(=O)Cc1cccc(C(F)(F)F)c1F)C(c1cnccc1C(F)(F)F)C(C)C (stereo not drawn) [I-76] | 90 | 70 | 95 | 40 | 80 | 70 | 80 | 10 | 100 | 70 | 100 | 70 | 0 | 0 | 10 | 100 | 100 | 98 | 50 | 60 | – |
| CCN(C(=O)Cc1cccc(C(F)(F)F)c1)C(c1cnccc1C(F)(F)F)C(C)C (stereo not drawn) [I-75] | 90 | 30 | 10 | 20 | 70 | 80 | 60 | 0 | 80 | 40 | 70 | 100 | 0 | 10 | 0 | 100 | 100 | 100 | 70 | 40 | – |
| CC(C)C(c1cnccc1C(F)(F)F)N(C)C(=O)Cc1ccccc1Cl (stereo not drawn) [I-26] | 80 | 50 | 30 | 30 | 90 | 80 | 90 | – | – | – | – | – | – | – | – | – | – | – | – | – | Growth controlling degree (%) Rice ([12]; active ingredient 250 g/ha): 10%; Growth controlling degree (%) Prickly sida ([13]; active ingredient 250 g/ha): 70%; Growth controlling degree (%) Redroot pigweed ([14]; active ingredient 250 g/ha): 70%; Growth controlling degree (%) Japanese bulrush ([6]; active ingredient 500 g/ha): 90%; Growth controlling degree (%) Barnyardgrass ([15]; active ingredient 250 g/ha): 80%; Growth controlling degree (%) Soyabean ([16]; active ingredient 250 g/ha): 0%; Growth controlling degree (%) Green foxtail ([17]; active ingredient 1000 g/ha): 70%; Growth controlling degree (%) Corn ([18]; active ingredient 250 g/ha): 40%; Growth controlling degree (%) Rice ([7]; active ingredient 500 g/ha): 20%; Growth controlling degree (%) Green foxtail ([20]; active ingredient 250 g/ha): 80%; Growth controlling degree (%) Crabgrass ([21]; active ingredient 250 g/ha): 80%; Growth controlling degree (%) Velvetleaf ([22]; active ingredient 250 g/ha): 80%; Growth controlling degree (%) Japanese ribbon wapato ([11]; active ingredient 500 g/ha): 10% |
| CC(C)C(c1cnccc1C(F)(F)F)N(C)C(=O)CC1CCCCC1 (stereo not drawn) [I-164] | – | – | – | – | – | – | – | 60 | 60 | 70 | 98 | 70 | 20 | 20 | 10 | 100 | 85 | 98 | 40 | 0 | Growth controlling degree (%) Velvetleaf ([1]; active ingredient 500 g/ha): 85%; Growth controlling degree (%) Soybean ([2]; active ingredient 500 g/ha): 30%; Growth controlling degree (%) Corn ([3]; active ingredient 500 g/ha): 50%; Growth controlling degree (%) Rice ([4]; active ingredient 500 g/ha): 50%; Growth controlling degree (%) Barnyardgrass ([5]; active ingredient 500 g/ha): 60%; Growth controlling degree (%) Green foxtail ([17]; active ingredient 500 g/ha): 60%; Growth controlling degree (%) Prickly sida ([8]; active ingredient 500 g/ha): 80%; Growth controlling degree (%) Crabgrass [19]: 60% |
